Results as given in ChEMBL document CHEMBL3244373, “Stereoselective effects of cis- and trans-cyclopropylbis (dioxopiperazines) related to ICRF-159 on metastases of hamster lung adenocarcinoma” (J Med Chem, 1978).
Active and inactive are the calls of the source. The rule behind the calls is not given here.

What was measured:
[1] = Induction of tumor growth in Syrian hamster LG1002 cells in allografted Syrian golden hamster at 15 mg/kg, ip for every 48 hrs for 4 weeks measured after 48 hrs of last treatment; assay type: organism-based, Mesocricetus auratus; set-up: dose 15 mg/kg, route intraperitoneal; settings: in vivo
Mesocricetus auratus [2] = assay: Antimetastatic activity against Syrian hamster LG1002 cells allografted to Syrian golden hamster LSH/LAK assessed as reduction of lung metastases at 15 mg/kg, ip for every 48 hrs for 4 weeks measured after 48 hrs of last treatment relative to carboxymethylcellulose; assay type: functional, organism-based; set-up: dose 15 mg/kg
Mesocricetus auratus [3] = assay: Antimetastatic activity against Syrian hamster LG1002 cells allografted to Syrian golden hamster LSH/LAK assessed as reduction of lung metastases at 15 mg/kg, ip for every 48 hrs for 4 weeks measured after 48 hrs of last treatment relative to saline control; assay type: functional, organism-based; set-up: dose 15 mg/kg
[4] = Induction of tumor growth in Syrian hamster LG1002 cells in allografted Syrian golden hamster at 15 mg/kg, ip for every 48 hrs for 4 weeks measured after 48 hrs of last treatment on day 28; assay type: organism-based, Mesocricetus auratus; set-up: dose 15 mg/kg, route intraperitoneal; settings: in vivo

| SMILES | Activity [1] | inhibition (Mesocricetus auratus [2]) | inhibition (Mesocricetus auratus [3]) | Activity [4] |
| --- | --- | --- | --- | --- |
| O=C1CN([C@@H]2C[C@@H]2N2CC(=O)NC(=O)C2)CC(=O)N1 | Non-toxic | Active | Active |  |
| O=C1CN([C@H]2C[C@@H]2N2CC(=O)NC(=O)C2)CC(=O)N1 (relative stereo) | Toxic | inactive | inactive | > 100 mm2 |
